This note sets out measurements from patent US9011833B2, “Vitamin E formulations of sulfamide NS3 inhibitors” (priority 2010, dated 2015).

Each structure is given as a SMILES string. Converted amounts (≈) assume the structure as drawn.

Data set [1] in a line: in vivo. Set-up: species or system sprague dowley rats. The settings on record: Sprague-Dawley, rat.
Data set [2] is described as follows: physchem. As to conditions: aqueous buffer, Compound 34 solubility.
The nature of data set [3]: Solubilization of Compound 34 in microemulsion formulation. In kind it is physicochemical. The settings on record: microemulsion preconcentrate or microemulsion diluted with water. An excerpt: Microemulsion preconcentrate or diluted microemulsion with water is used. The formulation solubilizes the Compound 34 up to 15% by wt. The specific components for formulation are: […]

Molecule `CC[C@@H]1C[C@]1(NC(=O)[C@@H]1C[C@@]2(CN1C(=O)[C@@H](NC(=O)[C@@H](NC(=O)[C@@H]1CCCCN1C(C)C)C1CCCCC1)C(C)(C)C)C(C)(C)C21CCC1)C(=O)NS(=O)(=O)N1CCCC1` [Compound 34, (5R,8S)-7-[(2S)-2-{[(2S)-2-cyclohexyl-2-({[(2S)-1-isopropylpiperidin-2-yl]carbonyl}amino)acetyl]a-mino}-3,3-dimethylbutanoyl]-N-{(1R,2R)-2-ethyl-1-[(pyrrolidin-1-ylsulfonyl)carbamoyl]cyclo-propyl}-10,10-dimethyl-7-azadispiro[3.0.4.1]decane-8-carboxamide] showed a bioavailability in data set [1] of 80 to 95%. This molecule came in with a solubility in data set [2] of 30 µg/mL (≈ 35 µM). Also, in data set [3], the “solubilized in microemulsion formulation” value is given as “up to 15 % by wt”.
